Source: PMC8179002, “Inhibitors of thiol-mediated uptake” (Chemical Science, 2020)
Where two headings read alike, the source gives them in different places.

Experiments:
[1] = Relative cell viability in HCHT screening (propidium iodide negative nuclei count); assay type: cell-based; details: human; for GI50: HeLa, removal, tinc 0.5 h with 1 (10 µM), read-out: GI50, concentration causing 50% cell growth inhibition
Experimental: (§1) With COCs 1 and 2 as cell-penetrating reporters, a fully automated, fluorescent microscopy image-based high-content high-throughput (HCHT)[19] inhibitor screening assay was developed. HeLa cells in multiwell plates are incubated with a reporter at constant and inhibitors at varying concentrations and incubation times. Hindered reporter uptake then causes decrease of fluorescence inside of cells (Fig. 3a). Automated data analysis[19] was established to extract average fluorescence intensity per cell and, at the same time, cell viability from propidium iodide negative nuclei count (Fig. 3 and S3–S6 ^†). Standard assay conditions consisted of pre-incubation of HeLa cells with inhibitors for different periods of time, followed by the removal of inhibitors and the addition of reporters, thus excluding possible interactions between the two in the extracellular environment. In alternative co-incubation conditions, inhibitors were not removed before the addition of reporters to allow for eventual interactions between the two.
To be able to extract the fluorescent integrated intensity information (sum of the intensities of all the pixels included in the mask) from the green channel for live cell only, the image analysis pipeline contains several steps of cell filtering and selection:
1) Firstly, PI is used to stain any remaining nuclei of dead cell. In the analysis pipeline, all the “dead” nuclei are detected based on their fluorescent intensity in the PI channel (Figure […]
Fig. S4 (A) PI positive nuclei mask (fluorescent intensity threshold of 1000). (B) Overlap image of dead nuclei mask and original all cell body mask. (C) Resulting cell mask after removing any cell marked by a dead nucleus, new mask is called “Live Cell”. Scale bar: 50 μm.
2) Elimination of non-full cells from the border of the image is performed, to avoid inaccurate fluorescent integrated intensity quantification (fluorescent integrated intensity = sum of intensity of all the pixel of the object) (Figure S5).
(1 picture or pasted object on this page, not shown here)
4.3. HCHT Inhibitor Screening with ETP as Reporter […]
(§2) Relative cell viability (RV) for each condition in the presence of inhibitors were calculated using the count value of living cells by dividing the count value of living cells with addition of reporter 1, Hoechst 33342 and PI, for each set of experiments. Duplicates were performed for each condition. The resulting dependence of the relative cell viability (RVrel) to the concentration of inhibitors (cinhibitor) was plotted and fitted with Equation (S2) to retrieve the concentration causing 50% cell growth inhibition (GI50) value and the Hill coefficient (n).
RVrel = 1 / (1 + (GI50 / cinhibitor)n) (S2)
Note: Reporter 1 were not toxic for 1 h at 10 μM.S2 Also in this study, the count value of living cells with addition of reporter 1, Hoechst 33342 and PI is always similar to that of living cells with only addition of Hoechst 33342 and PI.
as §2, with “with” for “in the presence of”, “2,” for “1,”
Note: Reporter 2 were not toxic for 24 h at 10 μM.S3 Also in this study, the count value of living cells with addition of reporter 2, Hoechst 33342 and PI is always similar to that of living cells with only addition of Hoechst 33342 and PI.
4.4.1. Screening with Disulfides as Inhibitors
4.4.1.1. Screening with ETP as Inhibitors
Fig. S35 Automatically analyzed HCHT data showing fluorescence intensity (filled symbols) and relative viability (empty symbols) of HeLa cells after pre-incubation with 3 for 1 h (blue […]

[2] = system: cellular uptake of 1 in HeLa Kyoto cells; assay: cells; assay type: cell-based; details: HeLa; for IC50 / minimal effective concentration: HeLa Kyoto, removal, tinc 0.5 h with 1 (10 µM); for IC50: read-out: IC50, inhibition of cellular uptake of 1; for minimal effective concentration: read-out: MIC, inhibition of cellular uptake of 1; for MIC (concentration that causes ∼15% reduction of reporter uptake), against reporter 1: pre-incubation time not given (Fig. 2: 1 h pre-incubation, 30 min with reporter; some 15 min)
Experimental: as §1
4. High-Content High-Throughput (HCHT) Inhibitor Screening
4.1. General Procedure for HCHT Inhibitor Screening
4.1.1. Pre-Incubation of Inhibitors
HeLa Kyoto cells were seeded at 1.2 ×10^4 cells/well in FluoroBrite DMEM + 10% FBS on μ-Plate 96-well Black ibiTreat sterile and kept at 37 °C with 5% CO2 overnight. Next day, serial dilutions of the inhibitors in PBS (10x final concentration), reporter 1 or 2 (100 μM in PBS) and a solution of Hoechst 33342 (100 μg/mL) and PI (10 μg/mL) in PBS were prepared freshly in a 96-well V-bottom plate. Then, cells were washed with PBS ([…]) and the media was exchanged to FluoroBrite DMEM (4 x 150 μL/well) using a plate washer (Biotek EL406®), keeping always a final volume of 135 μL/well. The inhibitor solutions from the V-bottom plate were added to the cells (15 μL/well, 10x final concentration in PBS) using an electronic multichannel pipettes to reach a final volume of 150 μL/well. Cells were incubated for the time of interest (for details of each inhibitors, see Section 4.3 and 4.4) at 37 °C with 5%
CO2. After this, cells were washed again using the plate washer and reporter solution 1 or 2 from the V-bottom plate was added (15 μL/well) using an electronic multichannel pipettes to reach a final volume of 150 μL/well and a final concentration of 10 μM, except for the control wells, where only PBS was added (15 μL/well). After 30 min of incubation at 37 °C with 5% CO2, the plate was washed again using the plate washer. Then, the solution of Hoechst 33342 and PI from V-bottom plate was added (15 μL/well) using an electronic multichannel pipettes to reach a final volume of 150 μL/well. After 15 min of incubation at 37 °C with 5% CO2, the plate was washed one last time and the cells were kept in clean FluoroBrite DMEM. During imaging, samples were kept at 37 °C with 5% CO2 in the microscope.
4.1.2. Co-Incubation of Inhibitors and Reporters […]
serial dilutions of the inhibitors in PBS (10x final concentration), reporter 1 or 2 (110 μM in […]
freshly in a 96-well V-bottom plate. Then, cells were washed with the plate washer. The inhibitor solutions from the V-bottom plate were added to the cells (15 μL/well, 10x final concentration in PBS) using an electronic multichannel pipettes to reach a final volume of 150 μL/well. Cells were incubated for the time of interest (for details of each inhibitors, see Section 4.3 and 4.4) at 37 °C with 5% CO2. Reporter solution 1 or 2 from V-bottom plate was then added (15 μL/well) using an electronic multichannel pipettes to reach a final volume of 165 μL/well and a final concentration of 10 μM 30 min before the next washing process, except for the control wells, where only PBS was added (15 μL/well). The plate was washed again using the plate washer. The solution of Hoechst 33342 and PI from V-bottom plate was added (15 μL/well) using an electronic multichannel pipettes to reach a final volume of 150 μL/well. After […]

[3] = 0.5 h, tpre 0.5 h with inhibitor
[4] = 0.25 h, tpre 0.25 h with inhibitor
[5] = GI50, concentration causing 50% cell growth inhibition

## CCN1C(=O)C2SSC1C(=O)N2CC(=O)NCC[N+](C)(C)C (stereo not shown) [compound 12]
[1]; tpre 0.5 h with inhibitor
  GI50: > 100 µM
[1]; tpre 1 h with inhibitor
  GI50: > 100 µM
[1]; tpre 2 h with inhibitor
  GI50: > 100 µM
[2]; [3]
  IC50: > 100 µM
  minimal effective concentration: 30 µM
[2]; 1 h, tpre 1 h with inhibitor
  minimal effective concentration: 30 µM
[2]; 2 h, tpre 2 h with inhibitor
  minimal effective concentration: 30 µM
[2]; tpre 1 h with inhibitor
  IC50: > 100 µM
[2]; tpre 2 h with inhibitor
  IC50: > 100 µM
[2]
  MIC (concentration that causes ∼15% reduction of reporter uptake), against reporter 1: ≈ 30 μM

## CS(=O)(=O)c1nc2ccccc2s1 [compound 21]
[1]; tpre 0.25 h with inhibitor
  GI50: > 500 µM
[1]; tpre 0.5 h with inhibitor
  GI50: > 500 µM
[1]; tpre 1 h with inhibitor
  GI50: > 500 µM
[2]; [4]
  minimal effective concentration: 300 µM
[2]; [3]
  IC50: > 500 µM
  minimal effective concentration: 100 µM
[2]; 1 h, tpre 1 h with inhibitor
  minimal effective concentration: 300 µM
[2]; tpre 0.25 h with inhibitor
  IC50: > 500 µM
[2]; tpre 1 h with inhibitor
  IC50: > 500 µM
[2]
  MIC (concentration that causes ∼15% reduction of reporter uptake), against reporter 1: ≈ 300 μM

## O=C(O)C1CSSC1 [compound 28]
[1]; tpre 1 h with inhibitor
  GI50: > 2000 µM
[1]; tpre 2 h with inhibitor
  GI50: > 2000 µM
[1]; tpre 4 h with inhibitor
  GI50: > 2000 µM
[2]; 1 h, tpre 1 h with inhibitor
  minimal effective concentration: > 2000 µM
[2]; 2 h, tpre 2 h with inhibitor
  minimal effective concentration: > 2000 µM
[2]; 4 h, tpre 4 h with inhibitor
  minimal effective concentration: > 2000 µM
[2]; tpre 1 h with inhibitor
  IC50: > 2000 µM
[2]; tpre 2 h with inhibitor
  IC50: > 2000 µM
[2]; tpre 4 h with inhibitor
  IC50: > 2000 µM

## CS(=O)(=O)c1nc2ccccc2o1 [compound 11]
[1]; tpre 0.25 h with inhibitor
  GI50: > 200 µM
[1]; tpre 0.5 h with inhibitor
  GI50: 138 ± 42 µM
[1]; tpre 1 h with inhibitor
  GI50: 97 ± 8 µM
[2]; [4]
  minimal effective concentration: 18 µM
[2]; [3]
  IC50: 43.3 ± 3.9 µM
  minimal effective concentration: 15 µM
[2]; 1 h, tpre 1 h with inhibitor
  minimal effective concentration: 8 µM
[2]; tpre 0.25 h with inhibitor
  IC50: 84 ± 8.2 µM
[2]; tpre 1 h with inhibitor
  IC50: 38.9 ± 4.2 µM
[2]
  MIC (concentration that causes ∼15% reduction of reporter uptake), against reporter 1: ≈ 15 μM

## C=CCS[S+]([O-])CC=C (stereo not shown) [compound 25, allicin, reference compound]
[1]; [5]
  GI50 at 1 h: > 500 µM
  GI50 at 2 h: > 500 µM
[2]
  Inhibition of uptake of reporter 1, in words: disappointing
[2]; 1 h, tpre 1 h with inhibitor
  minimal effective concentration: > 500 µM
[2]; 2 h, tpre 2 h with inhibitor
  minimal effective concentration: > 500 µM
[2]; tpre 1 h with inhibitor
  IC50: > 500 µM
[2]; tpre 2 h with inhibitor
  IC50: > 500 µM

## O=C(O)CCCCC1CCS[S+]1[O-] (stereo not shown) [compound 27]
[1]; tpre 1 h with inhibitor
  GI50: > 5000 µM
[1]; tpre 2 h with inhibitor
  GI50: > 5000 µM
[1]; tpre 4 h with inhibitor
  GI50: 1800 ± 300 µM
[2]; 1 h, tpre 1 h with inhibitor
  minimal effective concentration: > 2000 µM
[2]; 2 h, tpre 2 h with inhibitor
  minimal effective concentration: > 2000 µM
[2]; 4 h, tpre 4 h with inhibitor
  minimal effective concentration: > 2000 µM
[2]; tpre 1 h with inhibitor
  IC50: > 2000 µM
[2]; tpre 2 h with inhibitor
  IC50: > 2000 µM
[2]; tpre 4 h with inhibitor
  IC50: > 2000 µM

## O=C(O)CNC(=O)c1ccc2c(c1)S[S+]([O-])S2 (stereo not shown) [compound 24]
[1]; tpre 0.5 h with inhibitor
  GI50: > 20 µM
[1]; tpre 1 h with inhibitor
  GI50: > 20 µM
[1]; tpre 2 h with inhibitor
  GI50: > 20 µM
[2]; [3]
  IC50: > 20 µM
  minimal effective concentration: > 20 µM
[2]; 1 h, tpre 1 h with inhibitor
  minimal effective concentration: > 20 µM
[2]; 2 h, tpre 2 h with inhibitor
  minimal effective concentration: > 20 µM
[2]; tpre 1 h with inhibitor
  IC50: > 20 µM
[2]; tpre 2 h with inhibitor
  IC50: > 20 µM

## O=C(O)CN1C(=O)C2SSC1C(=O)N2CCOc1ccccc1 (stereo not shown) [compound 5]
[1]; tpre 0.5 h with inhibitor
  GI50: 10.3 ± 0.4 µM
[1]; tpre 1 h with inhibitor
  GI50: 7 ± 0.6 µM
[1]; tpre 2 h with inhibitor
  GI50: ~4.7 µM
[1]; tpre 4 h with inhibitor
  GI50: ~4.1 µM
[2]; [3]
  IC50: 1.1 ± 0.05 µM
  minimal effective concentration: 0.1 µM
[2]; 1 h, tpre 1 h with inhibitor
  minimal effective concentration: 0.1 µM
[2]; 2 h, tpre 2 h with inhibitor
  minimal effective concentration: 0.1 µM
[2]; 4 h, tpre 4 h with inhibitor
  minimal effective concentration: 0.1 µM
[2]; tpre 1 h with inhibitor
  IC50: 0.86 ± 0.06 µM
[2]; tpre 2 h with inhibitor
  IC50: 0.98 ± 0.07 µM
[2]; tpre 4 h with inhibitor
  IC50: 1.42 ± 0.26 µM

## O=C(O)CCCCC1CCSS1 (stereo not shown) [compound 30]
[1]; [5]
  GI50 at 1 h: > 2000 µM
  GI50 at 2 h: > 2000 µM
  GI50 at 4 h: > 2000 µM
[2]; 1 h, tpre 1 h with inhibitor
  minimal effective concentration: > 2000 µM
[2]; 2 h, tpre 2 h with inhibitor
  minimal effective concentration: > 2000 µM
[2]; 4 h, tpre 4 h with inhibitor
  minimal effective concentration: > 2000 µM
[2]; tpre 1 h with inhibitor
  IC50: > 2000 µM
[2]; tpre 2 h with inhibitor
  IC50: > 2000 µM
[2]; tpre 4 h with inhibitor
  IC50: > 2000 µM

## O=C(CN1C(=O)C2SSC1C(=O)N2CCOc1ccccc1)NCCS(=O)(=O)O (stereo not shown) [compound 8]
[1]; tpre 0.5 h with inhibitor
  GI50: > 100 µM
[1]; tpre 1 h with inhibitor
  GI50: > 100 µM
[1]; tpre 2 h with inhibitor
  GI50: > 100 µM
[2]; [3]
  IC50: > 100 µM
  minimal effective concentration: 10 µM
[2]; 1 h, tpre 1 h with inhibitor
  minimal effective concentration: 2 µM
[2]; 2 h, tpre 2 h with inhibitor
  minimal effective concentration: 6 µM
[2]; tpre 1 h with inhibitor
  IC50: > 100 µM
[2]; tpre 2 h with inhibitor
  IC50: > 100 µM

## O[C@@H]1CSSC[C@@H]1O [compound 29]
[1]; tpre 1 h with inhibitor
  GI50: > 2000 µM
[1]; tpre 2 h with inhibitor
  GI50: > 2000 µM
[1]; tpre 4 h with inhibitor
  GI50: > 2000 µM
[2]; 1 h, tpre 1 h with inhibitor
  minimal effective concentration: > 2000 µM
[2]; 2 h, tpre 2 h with inhibitor
  minimal effective concentration: > 2000 µM
[2]; 4 h, tpre 4 h with inhibitor
  minimal effective concentration: > 2000 µM
[2]; tpre 1 h with inhibitor
  IC50: > 2000 µM
[2]; tpre 2 h with inhibitor
  IC50: > 2000 µM
[2]; tpre 4 h with inhibitor
  IC50: > 2000 µM
